Where two headings read alike, the source gives them in different places.
Columns and labels:
[1] = from CCn1c(-c2cc(N3CCN(c4cccc(COC=O)c4)CC3)cnc2[C@H](C)OC)c(CC(C)(C)CO)c2cc([C@@H]3C[C@H]3CC[C@H](NC(=O)OC(C)(C)C)C(=O)N3CCC[C@@H](C(=O)O)N3)ccc21; ester bond; 18-membered ring; EDCI/HOBt/DIEA; DCM; 10.8 mM; 45.0 °C; 16.0 h
[2] = ester bond, 18-membered ring, EDCI/HOBt/DIEA, DCM

CCn1c(-c2cc(N3CCN(c4cccc(COC=O)c4)CC3)cnc2[C@H](C)OC)c2c3cc(ccc31)[C@@H]1C[C@H]1CC[C@H](NC(=O)OC(C)(C)C)C(=O)N1CCC[C@H](N1)C(=O)OCC(C)(C)C2
ring closure, yield after HPLC [1]: 4.8%

CCn1c(-c2cccnc2[C@H](C)OC)c2c3cc(ccc31)[C@@H]1C[C@H]1OC[C@H](NC(=O)OC(C)(C)C)C(=O)N1CCC[C@H](N1)C(=O)OCC(C)(C)C2
ring closure, isolated yield ([2]; from CCn1c(-c2cccnc2[C@H](C)OC)c(CC(C)(C)CO)c2cc([C@@H]3C[C@H]3OC[C@H](NC(=O)OC(C)(C)C)C(=O)N3CCC[C@@H](C(=O)O)N3)ccc21, 13.8 mM, 20.0 °C, 12.0 h): 37%

CCn1c(-c2cc(N3CCN(C(=O)OCc4ccccc4)CC3)cnc2[C@@H](C)OC)c(CC(C)(C)CO)c2cc([C@H]3C[C@@H]3N(C)C[C@@H](NC(=O)OC(C)(C)C)C(=O)N3CCC[C@@H](C(=O)OC)N3)ccc21
ring closure, isolated yield ([2]; the molecule shown is the open-chain precursor, 10.3 mM, 35.0 °C): 16%

Source: patent US20250129097
